“And” between values parts separate entries of the source, which are not always exact repeats. Equal values may be shown once. Read-outs that look alike come from different tables or passages of the source. Marks after values point to notes of the source that are not given here.
Experiments:
[1] = Particle size of micronized magnesium isoglycyrrhizinate; assay type: physicochemical; details: micronized active ingredient
Excerpt: The magnesium isoglycyrrhizinate was micronized to obtain samples having the following different particle size ranges.

[2] = tested on: COPD rats; assay: White blood cell count and cell classified comparison in BALF of COPD rats; assay type: in vivo, SD rats
Method: (§1) After modeling chronic obstructive pulmonary disease model induced by cigarette smoke inhalation, male SD rats were randomly divided into 6 groups according to the body weight: high dose tracheal instillation group (1.67 mg/ml of magnesium isoglycyrrhizinate, 100 μl/rat), low dose tracheal instillation group (1.67 mg/ml, 25 μl/rat), aerosolizing inhalation group, model group and blank control group, 10 rats in each group. During the intervention period, except that the control group and the model group were given normal saline, the other groups were successive administered every day, lasted for 15 days. During the administration period, the administration groups continued to be given with smoke stimulation after 30 minutes of administration, and the mental state, breathing, activity, hair luster, weight gain of the rats were recorded every day. 12 hour after the last administration, whole blood was taken from the rat eye for determination of white blood cell count and cell classified comparison. […] The right lung was ligated at the right main branch, and the left lung was lavaged with normal saline 2 ml×3 times. The recovery rate was about 80%. The bronchoalveolar lavage fluid (BALF) was prepared for the determination of white blood cell count and classified comparison (white blood cells, neutrophils, lymphocytes and monocytes). Finally, the right lung of rat was fixed with 10% formalin and HE stained, lung injury was observed under microscope, and pathological lesions were scored. All scores were accumulated, and the average score of each animal in each group was calculated (mean±SD).
(§2) The experimental result data was expressed in the form of mean±SD. One-way ANOVA combined with Post-Hoc (LSD method) was used to analyze the differences between groups. Statistical significance was expressed as a P value of less than 0.05. The model group was compared with the blank control group, #p<0.05, #p<0.01; each administration group of magnesium isoglycyrrhizinate was compared with the model group, *p<0.05, **p<0.01.

[3] = tested on: COPD rats; assay: Pathological score of lung of COPD rats (HE staining); assay type: in vivo, SD rats; design: key to Pathological score, Comprehensive score / Pathological score, Emphysema / Pathological score, Inflammatory cell infiltration / Pathological score, Bronchial mucus secretion: lesion score 0 = none, 0.5 slight … 4 = very severe; group mean±SD
Method: as §1
Scoring indicators: (1) whether there was mucus and cell blockage in the small airway cavity; (2) whether the small airway epithelium had necrotic erosion; (3) small airway epithelial cells goblet cell metaplasia; (4) small airway epithelial cell squamous metaplasia; (5) small airway wall inflammation cell infiltration; (6) small airway wall fibrous connective tissue hyperplasia; (7) small airway wall smooth muscle hyperplasia; (8) small airway wall pigmentation; and (9) lung emphysema. Lesion score: according to the degree from light to heavy lesions, it was quantified as slight or very small amount for “0.5 point”, mild or small amount for “1 point”, moderate or more quantity amount for “2 points”, severe or plenty amount for “3 points”, very severe or large amount for “4 points”, and no obvious lesions for 0 point.
as §2

[4] = intravenous, 30.0 mg/kg, cited from earlier work
[5] = tested on: COPD rats; assay: White blood cell count and cell classified comparison in blood of COPD rats; assay type: in vivo, SD rats
Method: as §1, §2

[6] = Pharmacokinetic evaluation after inhalation/intragastric administration to rats; assay type: in vivo, SD rats; details: for Cmax/Dose: in (µg/L)/(mg/kg); for AUC(0-t)/Dose: in (µg·h/L)/(mg/kg); for MRT last: read-out: MRT(0-t); for half-life: read-out: t½ z (converted)
Method: Eight healthy male SD rats, weighing 223-252 g, were fed with standard formula granule feed of rats on time every day. The rats were fasted for 16 h before the experiment, and were refeeded at 4 h after the administration. Drinking water was free before, after and during the experiment. The rats were randomly divided into two groups, 4 rats in each group, and each rat was inhalation administrated with a single dose of magnesium isoglycyrrhizinate liquid preparation for use in nebulizers (2.5 mg/mL) and intragastric administrated with magnesium isoglycyrrhizinate inhaled preparation (5.0 mg/mL, the amount of isoglycyrrhizic acid is 4.486 mg/mL) respectively. Each rat in the inhalation administration group was given 200 μL of magnesium isoglycyrrhizinate liquid preparation for use in nebulizers (the actual dose given to the rat was 2.24-2.49 mg/kg). The dose in the intragastric administration group was 10.0 mg/kg. 0.2-0.3 mL of blood was taken from the fundus venous plexus before administration (0 h) and 0.0833 h, 0.25 h, 0.5 h, 1 h, 2 h, 4 h, 6 h, 8 h, 10 h, 24 h after administration. EDTA-K2 was used for anticoagulation, and the plasma was centrifuged. Then 50 μL was accurately measured, added with 10 μL internal standard solution to vortex and mixed, then added with 200 μL methanol, and mixed in high speed vortex mixer for 3 min, centrifuged for 10 min (4° C., 13000 rpm). The supernatant was collected, and 100 μL thereof was transferred to a 96-well plate. 50 μL of ultrapure water was added, vortexed, LC-MS/MS was used for detection, and the chromatogram was recorded.

[7] = tested on: COPD rats; assay: General symptoms of COPD rats (cigarette smoke inhalation model); assay type: in vivo, SD rats; details: high dose and low dose tracheal infusion and nebulization, versus model group
Method: as §1, with “The recovery rate was about 80%. The bronchoalveolar lavage fluid (BALF) was prepared for the determination of white blood cell count and classified comparison (white blood cells, neutrophils, lymphocytes and monocytes).” left out

[8] = Body weight of COPD rats (cigarette smoke inhalation model); assay type: in vivo, SD rats; details: in g (unit assumed)
Method: as §1, §2

[9] = tested on: tracheal secretion in mice; assay: Mouse phenol red excretion assay (tracheal secretion); assay type: in vivo, ICR mice; details: 1.0 g/kg/d*6 d, i.g. 6 d
Method: 50 male ICR mice, weighing about 21 g, were randomly divided into 5 groups: control group 1 (normal saline, NS), control group 2 (normal saline, NS), positive control group (ammonium chloride, 1 g/kg), drug group 1 (0.2 mg/ml of magnesium isoglycyrrhizinate liquid preparation for use in nebulizers, nebulizing for 30 min), drug group 2 (0.2 mg/ml of magnesium isoglycyrrhizinate liquid preparation for use in nebulizers, nebulizing for 15 min). The mice in control group 1 and the positive control group were intragastrically administered with the corresponding drugs (0.1 ml/10 g), the mice in control group 2 and the drug group 1 were aerosolizing administered with a nebulizer for 30 min, while the mice in drug group 2 were 15 min. The administration frequency was once a day for 6 consecutive days. Before the 6th administration, the mice were starved for 16-18 hours, only allowed for drinking water. After 30 minutes of administration, i.p. 1% phenol red physiological in saline solution 0.2 ml/10 g was injected and 30 minutes later, the mice were killed by cervical dislocation. […] Among them, each drug group was compared with the control group 2, ^ΔΔp<0.01.

[10] = aerosolizing inhalation, 0.4 mg/ml, 30 min
[11] = high dose tracheal instillation, 1.67 mg/ml, 100 μl
[12] = low dose tracheal instillation, 1.67 mg/ml, 25 μl
[13] = male, SD, rat, plasma, inhaled or intranasal, inhalation, 2.4 mg/kg
[14] = male, SD, rat, plasma, po, intragastric, 10 mg/kg

CC1(C)[C@@H](O[C@H]2O[C@H](C(=O)[O-])[C@@H](O)[C@H](O)[C@H]2O[C@@H]2O[C@H](C(=O)[O-])[C@@H](O)[C@H](O)[C@H]2O)CC[C@]2(C)[C@H]3C(=O)C=C4[C@H]5C[C@@](C)(C(=O)O)CC[C@]5(C)CC[C@@]4(C)[C@]3(C)CC[C@@H]12.[Mg+2] [Small particle size, magnesium isoglycyrrhizinate]
X10 [1]: 0.58 μm
X50 [1]: 2.03 μm

CC1(C)[C@@H](O[C@H]2O[C@H](C(=O)[O-])[C@@H](O)[C@H](O)[C@H]2O[C@@H]2O[C@H](C(=O)[O-])[C@@H](O)[C@H](O)[C@H]2O)CC[C@]2(C)[C@H]3C(=O)C=C4[C@H]5C[C@@](C)(C(=O)O)CC[C@]5(C)CC[C@@]4(C)[C@]3(C)CC[C@@H]12.[Mg+2] [Large particle size, magnesium isoglycyrrhizinate]
X10 [1]: 1.47 μm
X50 [1]: 5.75 μm

CC1(C)[C@@H](O[C@H]2O[C@H](C(=O)[O-])[C@@H](O)[C@H](O)[C@H]2O[C@@H]2O[C@H](C(=O)[O-])[C@@H](O)[C@H](O)[C@H]2O)CC[C@]2(C)[C@H]3C(=O)C=C4[C@H]5C[C@@](C)(C(=O)O)CC[C@]5(C)CC[C@@]4(C)[C@]3(C)CC[C@@H]12.[Mg+2] [Medium particle size, magnesium isoglycyrrhizinate]
X10 [1]: 1.38 μm
X50 [1]: 5.08 μm

CC1(C)[C@@H](O[C@H]2O[C@H](C(=O)[O-])[C@@H](O)[C@H](O)[C@H]2O[C@@H]2O[C@H](C(=O)[O-])[C@@H](O)[C@H](O)[C@H]2O)CC[C@]2(C)[C@H]3C(=O)C=C4[C@H]5C[C@@](C)(C(=O)O)CC[C@]5(C)CC[C@@]4(C)[C@]3(C)CC[C@@H]12.[Mg+2] [magnesium isoglycyrrhizinate, magnesium (18α,20β)-20-carboxy-11-oxo-30-norolean-12-ene-3β-yl-2-O-β-D-pyranoglucuronyl-α-D-pyranoglucuronate]
Neutrophil count [2, 10]: 57.83 ± 20.78 10/μl
Percentage of neutrophils [2, 10]: 38.83 ± 21.02%
White blood cell count [2, 10]: 170.33 ± 55.17 10/μl
Neutrophil count [2, 11]: 89.88 ± 21.57* 10/μl
Percentage of neutrophils [2, 11]: 48.89 ± 9.69%
White blood cell count [2, 11]: 184.38 ± 32.15 10/μl
Neutrophil count [2, 12]: 66.38 ± 25.46 10/μl
Percentage of neutrophils [2, 12]: 38.08 ± 12.86%
White blood cell count [2, 12]: 172.50 ± 26.52 10/μl
Pathological score, Bronchial mucus secretion [3, 10]: 0.278 ± 0.363
Pathological score, Comprehensive score [3, 10]: 0.89 ± 0.65*
Pathological score, Emphysema [3, 10]: 0.222 ± 0.441
Pathological score, Inflammatory cell infiltration [3, 10]: 0.389 ± 0.333**
Pathological score, Bronchial mucus secretion [3, 11]: 0.050 ± 0.158**
Pathological score, Comprehensive score [3, 11]: 0.90 ± 0.52*
Pathological score, Emphysema [3, 11]: 0.300 ± 0.422
Pathological score, Inflammatory cell infiltration [3, 11]: 0.450 ± 0.550*
Lung pathology of COPD rats (in words) ([3]; high dose, low dose tracheal infusion and aerosolizing inhalation groups): significantly reduce lung inflammation, improve bronchial wall function, reduce bronchial mucus secretion and improve emphysema
Pathological score, Bronchial mucus secretion [3, 12]: 0.200 ± 0.350
Pathological score, Comprehensive score [3, 12]: 0.80 ± 0.50*
Pathological score, Emphysema [3, 12]: 0.150 ± 0.337
Pathological score, Inflammatory cell infiltration [3, 12]: 0.400 ± 0.394**
Cmax ([4]; N = 6, literature): 354500 ng/mL
AUC(0-t) ([4]; literature): 209591 ng·h/mL
AUC(0-t)/Dose ([4]; literature): 6986
AUC(0-∞) ([4]; literature): 212295 ng·h/mL
CLz/F ([4]; literature): 2355 mL/min/kg
Cmax/Dose ([4]; literature): 11817
MRT(0-t) ([4]; literature): 1.71 h
Tmax ([4]; literature): 5 min
t1/2 z ([4]; literature): 2.06 h
Neutrophil count [5, 10]: 123.67 ± 23.24** 10/μl
Percentage of neutrophils [5, 10]: 11.05 ± 1.61** %
White blood cell count [5, 10]: 1123.33 ± 170.54 10/μl
Neutrophil count [5, 11]: 153.25 ± 40.12* 10/μl
Percentage of neutrophils [5, 11]: 11.31 ± 3.55* %
White blood cell count [5, 11]: 1395.13 ± 270.32 10/μl
Neutrophil count [5, 12]: 155.13 ± 26.25* 10/μl
Percentage of neutrophils [5, 12]: 13.80 ± 2.24* %
White blood cell count [5, 12]: 1135.13 ± 155.73 10/μl
CLz/F ([6]; inhalation, 2.4 mg/kg): 3.25 mL/min/kg and 3.25 ± 1.72 mL/min/kg
t½ z ([6]; inhalation, 2.4 mg/kg): 2.13 ± 0.69 h
Cmax/Dose ([6]; inhalation, 2.4 mg/kg): 1315 and 1315 ± 306
AUC(0-t)/Dose ([6]; inhalation, 2.4 mg/kg): 6108 and 6108 ± 2577
CLz/F ([6]; intragastric, 10 mg/kg): 2700 mL/min/kg
Cmax/Dose ([6]; intragastric, 10 mg/kg): 2.73
AUC(0-t)/Dose ([6]; intragastric, 10 mg/kg): 8.98
Cmax ([6]; male, SD, rat, inhaled or intranasal, inhalation, liquid preparation for nebulizers 2.5 mg/mL, 200 μL, 2.4 mg/kg, plasma): 3110 ng/mL
AUC(0-inf) [6, 13]: 14600 ng·h/mL
AUC(0-t) [6, 13]: 14600 ng·h/mL
Tmax [6, 13]: 0.81 h
MRT last [6, 13]: 3.52 h
half-life [6, 13]: 2.13 h
bioavailability ([6]; male, SD, rat, plasma, inhaled, inhalation compared with intravenous administration (literature), read-out: Relative F %): 87%
AUC(0-inf) [6, 14]: 102 ng·h/mL
AUC(0-t) [6, 14]: 89.8 ng·h/mL
Tmax [6, 14]: 1.75 h
MRT last [6, 14]: 2.35 h
half-life [6, 14]: 1.88 h
Cmax ([6]; male, SD, rat, po, intragastric, 5.0 mg/mL, 10 mg/kg, plasma): 27.3 ng/mL
General symptoms of COPD rats [7]: relieved compared with the model group
Body weight, End weight [8, 10]: 360.11 ± 18.84**
Body weight, Initial weight [8, 10]: 319.22 ± 10.43**
Body weight, End weight [8, 11]: 358.20 ± 16.17**
Body weight, Initial weight [8, 11]: 324.6 ± 12.22**
Body weight, End weight [8, 12]: 350.80 ± 27.79**
Body weight, Initial weight [8, 12]: 317.60 ± 24.23**

Cl.N [ammonium chloride]
Amount of phenol red excretion [9]: 0.5924 ± 0.3781 µg/mL

From patent US11534398B2, “Inhaled preparation of isoglycyrrhizic acid or salt thereof, and use in preparing drugs for treating respiratory system diseases” (priority 2016, dated 2022)
